The text below walks through data of patent US11059832B2, “HPK1 inhibitors and methods of using same” (University Health Network, priority 2015, dated 2021).

Bounds are passed on as bounds.

The target in data set [1] is T1, FLT3 (Homo sapiens, UniProt P36888).
T1 construct: purchased Invitrogen PV3182
T1 sequence (P36888 27-993): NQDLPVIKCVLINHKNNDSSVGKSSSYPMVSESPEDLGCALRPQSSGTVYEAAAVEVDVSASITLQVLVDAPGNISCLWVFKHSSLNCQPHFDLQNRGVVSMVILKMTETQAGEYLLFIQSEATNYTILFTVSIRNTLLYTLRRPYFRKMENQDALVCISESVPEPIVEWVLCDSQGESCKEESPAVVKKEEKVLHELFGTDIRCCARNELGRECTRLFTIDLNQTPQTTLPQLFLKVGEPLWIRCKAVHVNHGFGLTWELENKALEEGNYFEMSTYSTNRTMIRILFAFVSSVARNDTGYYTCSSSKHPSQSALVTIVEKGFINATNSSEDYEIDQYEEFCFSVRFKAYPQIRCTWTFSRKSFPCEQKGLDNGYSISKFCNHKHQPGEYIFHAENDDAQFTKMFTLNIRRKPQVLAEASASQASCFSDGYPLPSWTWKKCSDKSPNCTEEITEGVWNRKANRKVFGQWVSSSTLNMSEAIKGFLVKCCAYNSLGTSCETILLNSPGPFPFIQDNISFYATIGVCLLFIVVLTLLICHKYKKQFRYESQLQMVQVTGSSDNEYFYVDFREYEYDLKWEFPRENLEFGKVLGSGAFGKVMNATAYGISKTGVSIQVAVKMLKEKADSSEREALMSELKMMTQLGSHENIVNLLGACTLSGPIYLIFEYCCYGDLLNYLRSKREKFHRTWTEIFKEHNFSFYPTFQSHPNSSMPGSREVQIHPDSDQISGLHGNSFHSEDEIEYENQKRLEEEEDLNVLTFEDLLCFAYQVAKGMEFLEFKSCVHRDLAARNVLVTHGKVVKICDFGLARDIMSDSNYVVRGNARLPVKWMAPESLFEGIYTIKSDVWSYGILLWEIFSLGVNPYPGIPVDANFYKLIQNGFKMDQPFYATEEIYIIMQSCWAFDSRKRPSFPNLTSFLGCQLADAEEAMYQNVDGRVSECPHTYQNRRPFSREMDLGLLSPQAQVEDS
The data set can be described thus: FLT3 inhibition, FRET based Z'-LYTE Kinase Assay. The data set is classed as biochemical. The following applies: 1 nM FLT3, 940 μM ATP; read-out: IC50 Range Flt3. The method, then: (§1) FLT3 and LCK compound inhibition were determined using FRET based Z′-LYTE Kinase Assay Kit with Tyrosine 2 peptide as the substrate (Invitrogen cat #PV3191). […] The % inhibition values were determined according to the manufacturer's directions and IC50 values were obtained using a non-linear 4 point logistic curve fit (XLfit4, IDBS).

In data set [2] the test system is CT26 WT colon carcinoma. The data set can be described thus: Syngeneic CT26 cell line xenograft model. The data set is classed as in vivo. The note with it: for Survival (tumour size <1500 mm^3 at day 21): 8 animals. As for the experimental part:
Six to eight week old female BALB/c mice were purchased from Jackson Laboratories and received and acclimated at the MaRS-TMDT Animal Resources Centre for 1 week prior to the start of the experiment. […] Mice were housed in microisolator cages and maintained in an environment with a 12 h light cycle at 20-22° C. and 40-60% humidity. On the day of implantation, CT26 cells were harvested and re-suspended with serum free RPMI1640 to a concentration of 1×10^7/mL and each mouse was injected subcutaneously with a volume of 0.1 mL containing 1×10^6 CT26 cells in the right rear flank. […] Toxicity was evaluated by body weight measurements and clinical observations. Tumour measurements and body weights were taken three times per week.
According to University Health Network (UHN) Animal Use Protocols (AUPs), mice in efficacy experiments should be sacrificed when the tumour size is above 1500 mm^3 or if the bodyweight of the animal decreases or if the animals are displaying clinical signs that require termination for humane reasons. […] A tumour size of <1500 mm^3 at day 21 was used as a cutoff to represent survival.

Data set [3] concerns SLP-76 serine 376 phosphorylation in α-CD3 stimulated Jurkat E6.1 cells. The data set can be described thus: In vitro phosphorylation assay, SLP-76 Ser376 (immunoblot). The format is cell-based. The note with it: Homo sapiens, 4 h pretreatment, substantive = >75% inhibition as estimated by immunoblot analysis, read-out: SLP76 S376 Phosphorylation Onset-Substantive* Inhibition. The method, then:
Jurkat E6.1 cells were obtained from American Type Culture Collection (ATCC, Manassas, Va.), and maintained according to the supplier's instructions. Cells were washed three times and starved in RPMI 1640 medium supplemented with 0.5% fetal calf serum for 18 h at 37° C. Serum starved cells were pretreated with the indicated concentration of inhibitor for 4 hours before stimulation with 10 μg/ml α-CD3 antibody (BioLegend, Inc., San Diego, Calif.) for 10 min at 37° C. The cells were washed once in phosphate-buffered saline (pH 7.4) containing 10 mm sodium pyrophosphate, 10 mm sodium fluoride, 10 mm EDTA, and 1 mm sodium orthovanadate. Protein lysates were prepared using ice-cold radioimmunoprecipitation assay (RIPA) lysis buffer. A total of 100 μg of cell lysate was loaded onto Bis-Tris gels (Life Technologies, Carlsbad, Calif.) with full-range molecular weight marker as a size reference, and resolved by SDS-PAGE electrophoresis. Proteins were transferred to PVDF membrane (Millipore, Billerica, Mass.), blocked and probed with antibodies for phospho-SLP-76 (Ser376) (rabbit polyclonal #13177; Cell Signaling Technology Inc., Danvers, Mass.), SLP-76 (rabbit polyclonal #4958; Cell Signaling Technology Inc., Danvers, Mass.), phospho-ERK (mouse monoclonal sc-7383; Santa Cruz Biotechnology Inc., Santa Cruz, Calif.) and ERK1/2 (rabbit polyclonal 06-182; Millipore, Billerica, Mass.). Secondary antibodies were diluted 1 in 15,000 and incubated for 1 h at rt. Protein bands were visualized and quantified using Odyssey near infrared imager (LI-COR, Lincoln, Nebr.).
Table 2 below lists effects of representative compounds of the present invention against SLP-76 serine 376 phosphorylation and ERK1/2 T202/Y204 phosphorylation in α-CD3 stimulated Jurkat E6.1 cells.

Data set [4] has as its target T2, LCK (Homo sapiens, UniProt P06239).
T2 construct: purchased Invitrogen P3043
The experiment in a line: LCK inhibition, FRET based Z'-LYTE Kinase Assay. The format is biochemical. The note with it: 25 nM LCK, 180 μM ATP; read-out: IC50 Range Lck. The method, then:
as §1

T2 sequence (P06239 whole entry, species assumed): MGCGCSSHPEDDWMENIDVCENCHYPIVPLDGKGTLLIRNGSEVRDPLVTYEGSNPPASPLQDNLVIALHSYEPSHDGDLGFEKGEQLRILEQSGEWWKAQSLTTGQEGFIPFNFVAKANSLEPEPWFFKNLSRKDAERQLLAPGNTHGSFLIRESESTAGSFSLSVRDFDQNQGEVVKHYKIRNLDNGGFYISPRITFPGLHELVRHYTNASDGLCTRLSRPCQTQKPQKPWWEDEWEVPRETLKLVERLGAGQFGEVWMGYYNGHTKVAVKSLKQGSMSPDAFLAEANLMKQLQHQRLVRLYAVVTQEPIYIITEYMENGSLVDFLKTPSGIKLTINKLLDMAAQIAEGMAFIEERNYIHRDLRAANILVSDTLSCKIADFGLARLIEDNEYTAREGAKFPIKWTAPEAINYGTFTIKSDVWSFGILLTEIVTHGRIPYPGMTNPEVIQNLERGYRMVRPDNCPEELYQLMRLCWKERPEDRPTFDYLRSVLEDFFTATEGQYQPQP

Take `CN1CCN(c2ccc3nc(-c4c(N)c5ccsc5[nH]c4=O)[nH]c3c2)CC1` [Example A1, 4-amino-5-(6-(4-methylpiperazin-1-yl)-1H-benzo[d]imidazol-2-yl)thieno[2,3-b]pyridin-6(7H)-one]: the results for the IC50 in data set [1] and in data set [4] were at most 0.05 µM and 0.05 to 0.5 µM, respectively. Moreover, the “Tumour growth inhibition (TGI)” value in data set [2] (75 mg/kg QD PO for 21 days, day 21, BALB/c mice) came to 44%; in data set [2] (150 mg/kg QD PO Example A1 combined with 150 μg anti-PD-1 antibody IP day 0, 3, 6 and 10, day 21), 86%; in data set [2] (150 mg/kg QD PO for 21 days, day 21, BALB/c mice) it was 64%. Besides, the “Survival (tumour size <1500 mm^3 at day 21)” value in data set [2] (75 mg/kg/day Example A1 arm) is recorded as 25%; in data set [2] (150 mg/kg/day Example A1 and anti-PD-1 arm), 87.5%; in data set [2] (150 mg/kg/day Example A1 arm) it was 37.5%. Further, the “Tolerability (body weight, clinical signs)” value in data set [2] (75 and 150 mg/kg QD PO 21 days, BALB/c mice, all animals gaining weight, none terminated due to clinical signs) was “well tolerated”. Further, the IC75 in data set [3] was 0.3 to 1 µM.
